Measurements published in ChEMBL document CHEMBL1140892, “Synthesis and evaluation of rifabutin analogs against Mycobacterium avium and H(37)Rv, MDR and NRP Mycobacterium tuberculosis” (Bioorg Med Chem, 2009).
≈ marks a conversion by molar mass, not a printed value. Calls of active or inactive are those of the source. No cut-off for these calls is given here.

What was measured:
[1] = system: Mycobacterium avium; test: Antimycobacterial activity against Mycobacterium avium 1581 at 0.2 mg/mL after 15 days relative to control; assay type: functional; settings: 360 h
[2] = system: Mycobacterium avium; test: Antimycobacterial activity against Mycobacterium avium 1581 at 0.4 mg/mL after 15 days relative to control; assay type: functional; settings: for inhibition at 400 µg/mL: 360 h
[3] = system: Mycobacterium tuberculosis; test: Antimycobacterial activity against Mycobacterium tuberculosis H37Rv after 7 days by resazurin method; assay type: functional; settings: 168 h
[4] = system: Mycobacterium tuberculosis; test: Antimycobacterial activity against non-replicating Mycobacterium tuberculosis assessed as luciferase activity incubated for 8 days measured after 24 hrs of incubation by low oxygen recover assay; assay type: functional
[5] = system: Mycobacterium tuberculosis; test: Antimycobacterial activity against non-replicating Mycobacterium tuberculosis assessed as colony forming unit after 8 days; assay type: functional; settings: 192 h
[6] = system: Vero; test: Cytotoxicity against african green monkey Vero cells after 72 hrs by MTS assay; assay type: cell-based; settings: Chlorocebus sabaeus
[7] = Selectivity index, ratio of IC50 for african green monkey Vero cells to MIC for non-replicating Mycobacterium tuberculosis; assay type: functional
[8] = system: Mycobacterium tuberculosis; test: Antimycobacterial activity against Mycobacterium tuberculosis H37Rv infected in BALB/c mouse assessed as reduction of bacterial load in lungs at 5 mg/kg/day, intragastrically after 1 month relative to control; assay type: functional, organism-based
[9] = system: Mycobacterium tuberculosis; test: Antimycobacterial activity against Mycobacterium tuberculosis H37Rv infected in BALB/c mouse assessed as reduction of bacterial load in lungs at 25 mg/kg/day, intragastrically after 1 month relative to control; assay type: functional, organism-based
[10] = system: Mycobacterium tuberculosis; test: Antimycobacterial activity against Mycobacterium tuberculosis H37Rv infected in BALB/c mouse assessed as lungs affected by pneumonia at 25 mg/kg/day, intragastrically after 1 month by histopathology study relative to control; assay type: functional, organism-based
[11] = system: Mycobacterium avium; test: Antimycobacterial activity against Mycobacterium avium 1581 at 0.1 mg/mL after 15 days relative to control; assay type: functional; settings: 360 h

Row | SMILES | inhibition at 200 µg/mL [1] [%] | inhibition at 400 µg/mL [2] [%] | MIC [3] [µg/mL] | MIC [4] [µM] | MBC [5] [µM] | IC50 [6] [µM] | Selectivity ratio [7] | Activity [8] | Activity [9] | Activity [10] | Activity [2] | inhibition at 100 µg/mL [11] [%]
1 | CO[C@H]1/C=C/O[C@@]2(C)Oc3c(C)c(O)c4c(c3[C@H]2O)C2=NC3(CC[N+]([O-])(CC(C)C)CC3)NC2=C(NC(=O)/C(C)=C\C=C\[C@H](C)[C@H](O)[C@@H](C)[C@@H](O)[C@@H](C)[C@H](OC(C)=O)[C@@H]1C)C4=O (stereo partly specified) | 44 | 53 | 0.6 (≈ 0.694 µM) | – | – | – | – | – | – | – | – | –
2 | C=CCCCCCCCCC(=O)N1C2=C3NC(=O)/C(C)=C\C=C\[C@H](C)[C@H](O)[C@@H](C)[C@@H](O)[C@@H](C)[C@H](OC(C)=O)[C@H](C)[C@@H](OC)/C=C/O[C@@]4(C)Oc5c(C)c(O)c(c(c5C4=O)C2=NC12CCN(CC(C)C)CC2)C3=O | 60 | > 99 | 0.1 (≈ 0.0987 µM) | 0.08 (≈ 0.0811 µg/mL) | 0.08 (≈ 0.0811 µg/mL) | 36.9 | 462 | inactive | inactive | inactive | – | –
3 | CO[C@H]1/C=C/O[C@@]2(C)Oc3c(C)c(O)c4c(c3[C@H]2O)C2=NC3(CCN(CC(C)C)CC3)NC2=C(NC(=O)/C(C)=C\C=C\[C@H](C)[C@H](O)[C@@H](C)[C@@H](O)[C@@H](C)[C@H](OC(C)=O)[C@@H]1C)C4=O [RIFABUTINOL] | 86 | > 99 | < 0.05 | – | – | – | – | – | – | – | – | –
4 | CO[C@H]1/C=C/O[C@@]2(C)Oc3c(C)c(O)c4c(c3[C@H]2O)C2=NC3(CCN(CC(C)C)CC3)N(C(C)=O)C2=C(NC(=O)/C(C)=C\C=C\[C@H](C)[C@H](O)[C@@H](C)[C@@H](O)[C@@H](C)[C@H](OC(C)=O)[C@@H]1C)C4=O | 54 | > 99 | 0.1 (≈ 0.112 µM) | – | – | – | – | – | – | – | – | –
5 | CO[C@H]1/C=C/O[C@@]2(C)Oc3c(C)c(O)c4c(c3[C@H]2O)C2=NC3(CCN(CC(C)C)CC3)NC2=C(NC(=O)/C(C)=C\C=C\[C@H](C)[C@H](O)[C@@H](C)[C@@H](O)[C@@H](C)[C@H](O)[C@@H]1C)C4=O | – | – | 0.2 (≈ 0.248 µM) | – | – | – | – | – | – | – | inactive | –
6 | CO[C@H]1/C=C/O[C@@]2(C)Oc3c(C)c(O)c4c(c3C2=O)C2=NC3(CCN(CC(C)C)CC3)N(C(C)=O)C2=C(NC(=O)/C(C)=C\C=C\[C@H](C)[C@H](O)[C@@H](C)[C@@H](O)[C@@H](C)[C@H](OC(C)=O)[C@@H]1C)C4=O | > 99 | > 99 | < 0.013 | 0.28 (≈ 0.249 µg/mL) | 0.18 (≈ 0.16 µg/mL) | > 92.7 | >331 | Active | Active | – | – | –
7 | CO[C@H]1/C=C/O[C@@]2(C)Oc3c(C)c(O)c4c(c3C2=O)C2=NC3(CCN(CC(C)C)CC3)NC2=C(NC(=O)/C(C)=C\C=C\[C@H](C)[C@H](O)[C@@H](C)[C@@H](O)[C@@H](C)[C@H](OC(C)=O)[C@@H]1C)C4=O [RIFABUTIN] | > 99 | – | < 0.013 | 0.08 (≈ 0.0678 µg/mL) | 0.05 (≈ 0.0424 µg/mL) | > 46.6 | >582 | – | – | – | – | > 99
8 | CO[C@H]1/C=C/O[C@@]2(C)Oc3c(C)c(O)c4c(O)c(c(/C=N/N5CCN(C)CC5)c(O)c4c3C2=O)NC(=O)/C(C)=C\C=C\[C@H](C)[C@H](O)[C@@H](C)[C@@H](O)[C@@H](C)[C@H](OC(C)=O)[C@@H]1C [RIFAMPIN] | – | – | – | 1.41 (≈ 1.16 µg/mL) | 0.39 (≈ 0.321 µg/mL) | 138 | 98 | – | – | – | – | –
9 | CO[C@H]1/C=C/O[C@@]2(C)Oc3c(C)c(O)c4c(c3C2=O)C2=NC3(CC[N+]([O-])(CC(C)C)CC3)NC2=C(NC(=O)/C(C)=C\C=C\[C@H](C)[C@H](O)[C@@H](C)[C@@H](O)[C@@H](C)[C@H](O)[C@@H]1C)C4=O (stereo partly specified) | – | – | 0.6 (≈ 0.731 µM) | – | – | – | – | – | – | – | inactive | –
10 | CO[C@H]1/C=C/O[C@@]2(C)Oc3c(C)c(O)c4c(c3C2=O)C2=NC3(CC[N+]([O-])(CC(C)C)CC3)NC2=C(NC(=O)/C(C)=C\C=C\[C@H](C)[C@H](O)[C@@H](C)[C@@H](O)[C@@H](C)[C@H](OC(C)=O)[C@@H]1C)C4=O (stereo partly specified) | – | – | 0.2 (≈ 0.232 µM) | 0.44 (≈ 0.38 µg/mL) | 0.28 (≈ 0.242 µg/mL) | > 35.8 | >82 | – | – | – | inactive | –
11 | CO[C@H]1/C=C/O[C@@]2(C)Oc3c(C)c(O)c4c(c3C2=O)C2=NC3(CCN(CC(C)C)CC3)NC2=C(NC(=O)/C(C)=C\C=C\[C@H](C)[C@H](O)[C@@H](C)[C@@H](O)[C@@H](C)[C@H](O)[C@@H]1C)C4=O | 91 | > 99 | 0.025 (≈ 0.0311 µM) | 0.29 (≈ 0.233 µg/mL) | 0.18 (≈ 0.145 µg/mL) | > 46.6 | >161 | – | – | – | – | –
12 | CCCCCCCCCCCCCCCC(=O)N1C2=C3NC(=O)/C(C)=C\C=C\[C@H](C)[C@H](O)[C@@H](C)[C@@H](O)[C@@H](C)[C@H](OC(C)=O)[C@H](C)[C@@H](OC)/C=C/O[C@@]4(C)Oc5c(C)c(O)c(c(c5C4=O)C2=NC12CCN(CC(C)C)CC2)C3=O | – | – | 0.1 (≈ 0.0921 µM) | 1.08 (≈ 1.17 µg/mL) | 0.14 (≈ 0.152 µg/mL) | > 34.8 | >32 | – | – | – | – | –
